# Assay results taken from US12245562B2, “System for rapid, robust, and efficient in vitro mass propagation of Miscanthus x giganteus” (Delaware State University, priority 2017, dated 2025).
# Counter-ions that a name gives are not always drawn.
# System: endophytic fungi
# Experiment: control of endophyte growth in in vitro shoot culture media
# Assay type: cell-based
# Details: 54 μM in DSIM culture medium of Miscanthus x giganteus; compared with vancomycin hydrochloride 0, 13.5, 27, 41.5 μM and tetracycline hydrochloride 20.8 or 52 μM
smiles,measurement,value
"CN[C@H](CC(C)C)C(=O)N[C@H]1C(=O)N[C@@H](CC(N)=O)C(=O)N[C@H]2C(=O)N[C@H]3C(=O)N[C@H](C(=O)N[C@H](C(=O)O)c4cc(O)cc(O)c4-c4cc3ccc4O)[C@H](O)c3ccc(c(Cl)c3)Oc3cc2cc(c3O[C@@H]2O[C@H](CO)[C@@H](O)[C@H](O)[C@H]2O[C@H]2C[C@](C)(N)[C@H](O)[C@H](C)O2)Oc2ccc(cc2Cl)[C@H]1O [vancomycin, vancomycin hydrochloride]",controlling the growth of endophytic fungi in the culture media,more effective
